Converted amounts (≈) assume the structure as drawn.
How the values were obtained:
Type in all cases: functional
Streptococcus pneumoniae [1] = assay: Antimicrobial activity against penicillin-intermediate Streptococcus pneumoniae assessed as intermediate isolate by broth microdilution method
Streptococcus pneumoniae [2] = assay: Antimicrobial activity against penicillin-resistant Streptococcus pneumoniae assessed as resistant isolate by broth microdilution method
Staphylococcus aureus [3] = assay: Antimicrobial activity against methicillin-susceptible Staphylococcus aureus by broth microdilution method
Staphylococcus aureus [4] = assay: Antimicrobial activity against methicillin-susceptible Staphylococcus aureus assessed as susceptible isolate by broth microdilution method
Staphylococcus [5] = assay: Antimicrobial activity against methicillin-susceptible coagulase-negative Staphylococcus by broth microdilution method
Staphylococcus [6] = assay: Antimicrobial activity against methicillin-susceptible coagulase-negative Staphylococcus assessed as susceptible isolate by broth microdilution method
Streptococcus pneumoniae [7] = assay: Antimicrobial activity against penicillin-susceptible Streptococcus pneumoniae by broth microdilution method
Streptococcus pneumoniae [8] = assay: Antimicrobial activity against penicillin-resistant Streptococcus pneumoniae by broth microdilution method
Streptococcus pneumoniae [9] = assay: Antimicrobial activity against […] assessed as susceptible isolate by broth microdilution method
Enterobacteriaceae [10] = assay: Antimicrobial activity against ceftazidime-susceptible Enterobacteriaceae by broth microdilution method
Enterobacteriaceae [11] = assay: Antimicrobial activity against Ceftazidime non-susceptible Enterobacteriaceae by broth microdilution method
Enterobacteriaceae [12] = assay: Antimicrobial activity against ceftazidime-susceptible Enterobacteriaceae assessed as susceptible isolate by broth microdilution method
Enterobacteriaceae [13] = assay: Antimicrobial activity against ceftazidime-susceptible Enterobacteriaceae assessed as intermediate isolate by broth microdilution method
Enterobacteriaceae [14] = assay: Antimicrobial activity against ceftazidime-susceptible Enterobacteriaceae assessed as resistant isolate by broth microdilution method
Enterobacteriaceae [15] = assay: Antimicrobial activity against Ceftazidime non-susceptible Enterobacteriaceae assessed as susceptible isolate by broth microdilution method
Enterobacteriaceae [16] = assay: Antimicrobial activity against Ceftazidime non-susceptible Enterobacteriaceae assessed as intermediate isolate by broth microdilution method
Enterobacteriaceae [17] = assay: Antimicrobial activity against Ceftazidime non-susceptible Enterobacteriaceae assessed as resistant isolate by broth microdilution method
Escherichia coli [18] = assay: Antimicrobial activity against Non-ESBL Escherichia coli by broth microdilution method
Escherichia coli [19] = assay: Antimicrobial activity against ESBL producing Escherichia coli by broth microdilution method
Escherichia coli [20] = assay: Antimicrobial activity against Non-ESBL Escherichia coli assessed as susceptible isolate by broth microdilution method
Escherichia coli [21] = assay: Antimicrobial activity against Non-ESBL Escherichia coli assessed as intermediate isolate by broth microdilution method
Escherichia coli [22] = assay: Antimicrobial activity against Non-ESBL Escherichia coli assessed as resistant isolate by broth microdilution method
Escherichia coli [23] = assay: Antimicrobial activity against ESBL producing Escherichia coli assessed as susceptible isolate by broth microdilution method
Escherichia coli [24] = assay: Antimicrobial activity against ESBL producing Escherichia coli assessed as intermediate isolate by broth microdilution method
Escherichia coli [25] = assay: Antimicrobial activity against ESBL producing Escherichia coli assessed as resistant isolate by broth microdilution method
Klebsiella pneumoniae [26] = assay: Antimicrobial activity against Non-ESBL Klebsiella pneumoniae by broth microdilution method
Klebsiella pneumoniae [27] = assay: Antimicrobial activity against ESBL producing Klebsiella pneumoniae by broth microdilution method
Klebsiella pneumoniae [28] = assay: Antimicrobial activity against Non-ESBL Klebsiella pneumoniae assessed as susceptible isolate by broth microdilution method
Klebsiella pneumoniae [29] = assay: Antimicrobial activity against Non-ESBL Klebsiella pneumoniae assessed as intermediate isolate by broth microdilution method
Klebsiella pneumoniae [30] = assay: Antimicrobial activity against ESBL producing Klebsiella pneumoniae assessed as susceptible isolate by broth microdilution method
Klebsiella pneumoniae [31] = assay: Antimicrobial activity against ESBL producing Klebsiella pneumoniae assessed as intermediate isolate by broth microdilution method
Klebsiella pneumoniae [32] = assay: Antimicrobial activity against ESBL producing Klebsiella pneumoniae assessed as resistant isolate by broth microdilution method
Proteus mirabilis [33] = assay: Antimicrobial activity against Non-ESBL Proteus mirabilis by broth microdilution method
Proteus mirabilis [34] = assay: Antimicrobial activity against ESBL producing Proteus mirabilis by broth microdilution method
Proteus mirabilis [35] = assay: Antimicrobial activity against Non-ESBL Proteus mirabilis assessed as susceptible isolate by broth microdilution method
Proteus mirabilis [36] = assay: Antimicrobial activity against Non-ESBL Proteus mirabilis assessed as intermediate isolate by broth microdilution method
Proteus mirabilis [37] = assay: Antimicrobial activity against ESBL producing Proteus mirabilis assessed as susceptible isolate by broth microdilution method
Proteus mirabilis [38] = assay: Antimicrobial activity against ESBL producing Proteus mirabilis assessed as intermediate isolate by broth microdilution method
Enterobacter cloacae [39] = assay: Antimicrobial activity against Enterobacter cloacae with nonderepressed AmpC beta-lactamsae by broth microdilution method
Enterobacter cloacae [40] = assay: Antimicrobial activity against Enterobacter cloacae with derepressed AmpC beta-lactamsae by broth microdilution method
Enterobacter cloacae [41] = assay: Antimicrobial activity against Enterobacter cloacae with nonderepressed AmpC beta-lactamsae assessed as susceptible isolate by broth microdilution method
Enterobacter cloacae [42] = assay: Antimicrobial activity against Enterobacter cloacae with nonderepressed AmpC beta-lactamsae assessed as intermediate isolate by broth microdilution method
Enterobacter cloacae [43] = assay: Antimicrobial activity against Enterobacter cloacae with nonderepressed AmpC beta-lactamsae assessed as resistant isolate by broth microdilution method
Enterobacter cloacae [44] = assay: Antimicrobial activity against Enterobacter cloacae with derepressed AmpC beta-lactamsae assessed as susceptible isolate by broth microdilution method
Enterobacter cloacae [45] = assay: Antimicrobial activity against Enterobacter cloacae with derepressed AmpC beta-lactamsae assessed as intermediate isolate by broth microdilution method
Enterobacter cloacae [46] = assay: Antimicrobial activity against Enterobacter cloacae with derepressed AmpC beta-lactamsae assessed as resistant isolate by broth microdilution method
Citrobacter [47] = assay: Antimicrobial activity against Citrobacter with nonderepressed AmpC beta-lactamsae by broth microdilution method
Citrobacter [48] = assay: Antimicrobial activity against Citrobacter with derepressed AmpC beta-lactamsae by broth microdilution method
Citrobacter [49] = assay: Antimicrobial activity against Citrobacter with nonderepressed AmpC beta-lactamsae assessed as susceptible isolate by broth microdilution method
Citrobacter [50] = assay: Antimicrobial activity against Citrobacter with nonderepressed AmpC beta-lactamsae assessed as intermediate isolate by broth microdilution method
Citrobacter [51] = assay: Antimicrobial activity against Citrobacter with derepressed AmpC beta-lactamsae assessed as susceptible isolate by broth microdilution method
Citrobacter [52] = assay: Antimicrobial activity against Citrobacter with derepressed AmpC beta-lactamsae assessed as resistant isolate by broth microdilution method
Serratia marcescens [53] = assay: Antimicrobial activity against Ceftazidime susceptible Serratia marcescens by broth microdilution method
Serratia marcescens [54] = assay: Antimicrobial activity against Ceftazidime non-susceptible Serratia marcescens by broth microdilution method
Serratia marcescens [55] = assay: Antimicrobial activity against Ceftazidime susceptible Serratia marcescens assessed as susceptible isolate by broth microdilution method
Serratia marcescens [56] = assay: Antimicrobial activity against Ceftazidime susceptible Serratia marcescens assessed as intermediate isolate by broth microdilution method
Serratia marcescens [57] = assay: Antimicrobial activity against Ceftazidime susceptible Serratia marcescens assessed as resistant isolate by broth microdilution method
Serratia marcescens [58] = assay: Antimicrobial activity against Ceftazidime non-susceptible Serratia marcescens assessed as susceptible isolate by broth microdilution method
Serratia marcescens [59] = assay: Antimicrobial activity against Ceftazidime non-susceptible Serratia marcescens assessed as intermediate isolate by broth microdilution method
Serratia marcescens [60] = assay: Antimicrobial activity against Ceftazidime non-susceptible Serratia marcescens assessed as resistant isolate by broth microdilution method
[61] = Streptococcus pneumoniae, read-out: MIC90

For `C[C@@H](O)[C@H]1C(=O)N2C(C(=O)O)=C(S[C@@H]3CN[C@H](C(=O)Nc4cccc(C(=O)O)c4)C3)[C@H](C)[C@H]12`, the Activity (Streptococcus pneumoniae [1]) was 94.5%, the Activity (Streptococcus pneumoniae [2]) was 39.6% and the MIC90 (Staphylococcus aureus [3]) was 0.5 µg/mL (≈ 1.05 µM). The MIC90 (Staphylococcus aureus [3]; Staphylococcus aureus, read-out: MIC90) was 0.25 µg/mL (≈ 0.526 µM), the Activity (Staphylococcus aureus [4]) was 99.4% and the MIC90 (Staphylococcus [5]) was 0.5 µg/mL (≈ 1.05 µM). It also gave an MIC90 (Staphylococcus [5]; Staphylococcus, read-out: MIC90) of 0.25 µg/mL (≈ 0.526 µM), an Activity (Staphylococcus [6]) of 99.4% and an MIC90 (Streptococcus pneumoniae [7]) of 0.03 µg/mL (≈ 0.0631 µM). For the same molecule, the MIC90 (Streptococcus pneumoniae [7]; [61]) was 0.03 µg/mL (≈ 0.0631 µM), the MIC90 (Streptococcus pneumoniae [8]) was 2 µg/mL (≈ 4.21 µM) and the MIC90 (Streptococcus pneumoniae [8]; [61]) was 2 µg/mL (≈ 4.21 µM). It also gave an Activity (Streptococcus pneumoniae [9]) of 100%.
In the case of `CO/N=C(\C(=O)N[C@@H]1C(=O)N2C(C(=O)O)=C(CSc3nc(=O)c(O)nn3C)CS[C@H]12)c1csc(N)n1` [CEFTRIAXONE], the MIC50 (Enterobacteriaceae [10]) is reported as 0.03 µg/mL (≈ 0.0541 µM), the MIC90 (Enterobacteriaceae [10]) is reported as 0.25 µg/mL (≈ 0.451 µM) and the MIC50 (Enterobacteriaceae [11]) is reported as > 64 µg/mL. For the same molecule, the MIC90 (Enterobacteriaceae [11]) was > 64 µg/mL, the Activity (Enterobacteriaceae [12]) was 99.3% and the Activity (Enterobacteriaceae [13]) was 0.4%. The Activity (Enterobacteriaceae [14]) was 0.3%, the Activity (Enterobacteriaceae [15]) was 7.6% and the Activity (Enterobacteriaceae [16]) was 26.9%. It also gave an Activity (Enterobacteriaceae [17]) of 65.4%, an MIC50 (Escherichia coli [18]) of 0.03 µg/mL (≈ 0.0541 µM) and an MIC90 (Escherichia coli [18]) of 0.06 µg/mL (≈ 0.108 µM). The MIC50 (Escherichia coli [19]) was > 64 µg/mL, the MIC90 (Escherichia coli [19]) was > 64 µg/mL and the Activity (Escherichia coli [20]) was 98.7%. The Activity (Escherichia coli [21]) was 1.1%, the Activity (Escherichia coli [22]) was 0.2% and the Activity (Escherichia coli [23]) was 20%. It also gave an Activity (Escherichia coli [24]) of 13.3%, an Activity (Escherichia coli [25]) of 66.7% and an MIC50 (Klebsiella pneumoniae [26]) of 0.03 µg/mL (≈ 0.0541 µM). The MIC90 (Klebsiella pneumoniae [26]) was 0.12 µg/mL (≈ 0.216 µM), the MIC50 (Klebsiella pneumoniae [27]) was 64 µg/mL (≈ 115 µM) and the MIC90 (Klebsiella pneumoniae [27]) was > 64 µg/mL. It also gave an Activity (Klebsiella pneumoniae [28]) of 99.3%, an Activity (Klebsiella pneumoniae [29]) of 0.3% and an Activity (Klebsiella pneumoniae [30]) of 9.1%. For the same molecule, the Activity (Klebsiella pneumoniae [31]) was 8.2%, the Activity (Klebsiella pneumoniae [32]) was 72.7% and the MIC (Proteus mirabilis [33]) was ≤ 0.015 µg/mL. For the same molecule, the MIC50 (Proteus mirabilis [33]) was ≤ 0.015 µg/mL, the MIC90 (Proteus mirabilis [33]) was ≤ 0.015 µg/mL and the MIC (Proteus mirabilis [34]) was 0.06 µg/mL (≈ 0.108 µM). For the same molecule, the Activity (Proteus mirabilis [35]) was 99.7%, the Activity (Proteus mirabilis [36]) was 0.3% and the Activity (Proteus mirabilis [37]) was 100%. The Activity (Proteus mirabilis [38]) was 0%, the MIC50 (Enterobacter cloacae [39]) was 0.25 µg/mL (≈ 0.451 µM) and the MIC90 (Enterobacter cloacae [39]) was 4 µg/mL (≈ 7.21 µM). For the same molecule, the MIC50 (Enterobacter cloacae [40]) was > 64 µg/mL, the MIC90 (Enterobacter cloacae [40]) was > 64 µg/mL and the Activity (Enterobacter cloacae [41]) was 91.9%. The Activity (Enterobacter cloacae [42]) was 4.7%, the Activity (Enterobacter cloacae [43]) was 3.5% and the Activity (Enterobacter cloacae [44]) was 0%. It also gave an Activity (Enterobacter cloacae [45]) of 6.8%, an Activity (Enterobacter cloacae [46]) of 93.2% and an MIC50 (Citrobacter [47]) of 0.12 µg/mL (≈ 0.216 µM). For the same molecule, the MIC90 (Citrobacter [47]) was 0.5 µg/mL (≈ 0.902 µM), the MIC50 (Citrobacter [48]) was 64 µg/mL (≈ 115 µM) and the MIC90 (Citrobacter [48]) was > 64 µg/mL. For the same molecule, the Activity (Citrobacter [49]) was 97.8%, the Activity (Citrobacter [50]) was 1.1% and the Activity (Citrobacter [51]) was 1.8%. The Activity (Citrobacter [52]) was 54.5%, the MIC50 (Serratia marcescens [53]) was 0.25 µg/mL (≈ 0.451 µM) and the MIC90 (Serratia marcescens [53]) was 1 µg/mL (≈ 1.8 µM). The MIC50 (Serratia marcescens [54]) was 64 µg/mL (≈ 115 µM), the MIC90 (Serratia marcescens [54]) was > 64 µg/mL and the Activity (Serratia marcescens [55]) was 98.1%. The Activity (Serratia marcescens [56]) was 1.4%, the Activity (Serratia marcescens [57]) was 0.6% and the Activity (Serratia marcescens [58]) was 10%. For the same molecule, the Activity (Serratia marcescens [59]) was 30% and the Activity (Serratia marcescens [60]) was 60%.

— ChEMBL document CHEMBL1275550, “In vitro activity of doripenem, a carbapenem for the treatment of challenging infections caused by gram-negative bacteria, against recent clinical isolates from the United States” (2008)
